We go through 42 molecules from patent publication US20180273528A1 (LES LABORATOIRES SERVIER, priority 2015, published 2018).

This assay addresses T1, His-TEV-DYRK1A Kinase domain (aa127-485) (Homo sapiens, UniProt Q13627).
T1 construct: His-TEV-DYRK1A Kinase domain (aa127-485); His tag (N); TEV protease cleavage site (N)
In words: Kinase ADP assay (ADP Hunter), DYRK1A kinase domain. Particulars: 20 μM ATP. Format: biochemical. The procedure:
The enzyme reaction was conducted in assay buffer (pH 7.4), containing 15 mM Hepes; 20 mM NaCl; 1 mM EGTA; 10 mM MgCl2; 0.02% Tween20 and 0.1 mg/ml Bovine-y-globulin. Test compounds of the invention were added in reaction buffer in a range of concentrations for 10 minutes at 30° C. in the presence of 20 nM DYRK1A enzyme, 40 μM peptide substrate and 20 μM ATP. Detection reagents (DiscoveRx 90-0083), ADP Hunter Plus Reagent A and then ADP Hunter Plus Reagent B were added. After a following 20 minutes incubation at 30° C., ADP Hunter Plus Stop Solution was added. The fluorescence intensity was measured at 590 nm.
“4-{3-[2-(2,6-dimethoxyphenoxy)ethyl]-3H-imidazo[4,5-b]pyridin-5-yl}pyridine-2,6-diamine [Example 213]”: it took 0.069 µM to reach half-maximal inhibition (IC50).
`Cc1nc2ccc(-c3cc(N)nc(N)c3)nc2n1[C@H](C)COc1ccccc1` (single isomer, unassigned) [Example 104] displayed an IC50 of 0.045 µM.
For the molecule `Cc1nc2ccc(-c3cc(N)nc(N)c3)nc2n1[C@@H](C)COc1ccccc1` (single isomer, unassigned) [Example 105], the half-maximal inhibitory concentration (IC50) stood at 0.092 µM.
For the molecule `Cc1nc2ccc(-c3cc(N)nc(N)c3)nc2n1C[C@@H](C)Oc1ccccc1Cl` (single isomer, unassigned) [Example 118], it took 0.031 µM to reach half-maximal inhibition (IC50).
For `Cc1nc2ccc(-c3cc(N)nc(N)c3)nc2n1C[C@@H](C)Oc1ccc(F)cc1` (single isomer, unassigned) [Example 130], it took 0.058 µM to reach half-maximal inhibition (IC50).
As for `COc1ccccc1O[C@H](C)Cn1c(C)nc2ccc(-c3cc(N)nc(N)c3)nc21` (single isomer, unassigned) [Example 142], half-maximal inhibition (IC50) required 0.037 µM.
Regarding `Cc1nc2ccc(-c3cc(N)nc(N)c3)nc2n1C[C@H](C)Oc1ccc(F)cn1` (single isomer, unassigned) [Example 178], it took 0.176 µM to reach half-maximal inhibition (IC50).
In turn, `Cc1nc2ccc(-c3cc(N)nc(N)c3)nc2n1C[C@@H](C)Oc1cccc(Br)n1` (single isomer, unassigned) [Example 181] registered an IC50 of 0.081 µM.
The molecule `Cc1nc2ccc(-c3cc(N)nc(N)c3)nc2n1C[C@@H](C)Oc1ncccc1Br` (single isomer, unassigned) [Example 183] registered an IC50 of 0.226 µM.
`Cc1nc2ccc(-c3cc(N)nc(N)c3)nc2n1C[C@H](C)Oc1ccc(Cl)cn1` (single isomer, unassigned) [Example 184]: the half-inhibitory concentration (IC50) is 0.165 µM.
The value for `Cc1nc2ccc(-c3cc(N)nc(N)c3)nc2n1C[C@@H](C)Oc1ccc(Cl)cn1` (single isomer, unassigned) [Example 185] was 0.041 µM; that for `Cc1nc2ccc(-c3cc(N)nc(N)c3)nc2n1C[C@H](C)Oc1ccc(Br)cn1` (single isomer, unassigned) [Example 186] was 0.154 µM.
Turning to `Cc1nc2ccc(-c3cc(N)nc(N)c3)nc2n1C[C@@H](C)Oc1ncccc1Cl` (single isomer, unassigned) [Example 191], the IC50 came out at 0.2 µM.
The value for `Cc1nc2ccc(-c3cc(N)nc(N)c3)nc2n1C[C@H](C)Oc1nc(F)ccc1F` (single isomer, unassigned) [Example 192] was 0.084 µM; that for `Cc1nc2ccc(-c3cc(N)nc(N)c3)nc2n1C[C@@H](C)Oc1nc(F)ccc1F` (single isomer, unassigned) [Example 193] was 0.028 µM.
The value for `Cc1nc2ccc(-c3cc(N)nc(N)c3)nc2n1CCCCO` [Example 70, 4-[5-(2,6-diaminopyridin-4-yl)-2-methyl-3H-imidazo[4,5-b]pyridin-3-yl]butan-1-ol] was 0.013 µM.
Regarding `Cc1nc2ccc(-c3cc(N)nc(N)c3)nc2n1CC1CCCOC1` (stereo not drawn) [Example 76, 4-[2-methyl-3-(tetrahydro-2H-pyran-3-ylmethyl)-3H-imidazo[4,5-b]pyridin-5-yl]pyridine-2,6-diamine], the IC50 was 0.04 µM.
The value for `Cc1nc2ccc(-c3cc(N)nc(N)c3)nc2n1CC1CCOCC1` [Example 80, 4-[2-methyl-3-(tetrahydro-2H-pyran-4-ylmethyl)-3H-imidazo[4,5-b]pyridin-5-yl]pyridine-2,6-diamine] was 0.043 µM.
`Cc1nc2ccc(-c3cc(N)nc(N)c3)nc2n1C(C)Cc1ccco1` (stereo not drawn) [Example 82, 4-{3-[1-(furan-2-yl)propan-2-yl]-2-methyl-3H-imidazo[4,5-b]pyridin-5-yl}pyridine-2,6-diamine] registered a half-inhibitory concentration (IC50) of 0.096 µM.
The value for `Cc1nc2ccc(-c3cc(N)nc(N)c3)nc2n1CCc1cccc(OC(C)C)c1` [Example 87] was 0.017 µM; that for `Cc1nc2ccc(-c3cc(N)nc(N)c3)nc2n1CCC1CCCCC1C` (stereo not drawn) [Example 102, 4-{2-methyl-3-[2-(2-methylcyclohexyl)ethyl]-3H-imidazo[4,5-b]pyridin-5-yl}pyridine-2,6-diamine] was 0.017 µM.
Regarding `Cc1nc2ccc(-c3cc(N)nc(N)c3)nc2n1C/C=C/c1ccccc1` [Example 111, 4-{2-methyl-3-[(2E)-3-phenylprop-2-en-1-yl]-3H-imidazo[4,5-b]pyridin-5-yl}pyridine-2,6-diamine], the 50% inhibitory concentration (IC50) was 0.012 µM.
`CCCCc1nc2ccc(-c3cc(N)nc(N)c3)nc2n1CCOc1ccccc1` [Example 146, 4-[2-butyl-3-(2-phenoxyethyl)-3H-imidazo[4,5-b]pyridin-5-yl]pyridine-2,6-diamine] registered a 50% inhibitory concentration (IC50) of 0.089 µM.
`CCCCc1nc2ccc(-c3cc(N)nc(N)c3)nc2n1C` [Example 147, 4-(2-butyl-3-methyl-3H-imidazo[4,5-b]pyridin-5-yl)pyridine-2,6-diamine]: it took 0.021 µM to reach half-maximal inhibition (IC50).
The same measure for `CCc1nc2ccc(-c3cc(N)nc(N)c3)nc2n1C` [Example 159, 4-(2-ethyl-3-methyl-3H-imidazo[4,5-b]pyridin-5-yl)pyridine-2,6-diamine]: 0.043 µM; for `CCCc1nc2ccc(-c3cc(N)nc(N)c3)nc2n1CCOc1ccccc1` [Example 162, 4-[3-(2-phenoxyethyl)-2-propyl-3H-imidazo[4,5-b]pyridin-5-yl]pyridine-2,6-diamine]: 0.056 µM.
Turning to `CCCc1nc2ccc(-c3cc(N)nc(N)c3)nc2n1C` [Example 163, 4-(3-methyl-2-propyl-31-imidazo[4,5-b]pyridin-5-yl)pyridine-2,6-diamine], the IC50 came out at 0.033 µM.
Turning to `Cc1nc2ccc(-c3cc(N)nc(N)c3)nc2n1CCOc1ncccc1Br` [Example 169, 4-(3-{2-[(3-bromopyridin-2-yl)oxy]ethyl}-2-methyl-3H-imidazo[4,5-b]pyridin-5-yl)pyridine-2,6-diamine], it took 0.055 µM to reach half-maximal inhibition (IC50).
The value for `Cc1nc2ccc(-c3cc(N)nc(N)c3)nc2n1C[C@@H](C)Oc1ccc(Br)cn1` [Example 187] was 0.082 µM; that for `Cc1cccc(OCCn2c(C)nc3ccc(-c4cc(N)nc(N)c4)nc32)c1` [Example 201, 4-{2-methyl-3-[2-(3-methylphenoxy)ethyl]-3H-imidazo[4,5-b]pyridin-5-yl}pyridine-2,6-diamine] was 0.021 µM.
For `Cc1nc2ccc(-c3cc(N)nc(N)c3)nc2n1CCOc1ccccc1Cl` [Example 204, 4-{3-[2-(2-chlorophenoxy)ethyl]-2-methyl-3H-imidazo[4,5-b]pyridin-5-yl}pyridine-2,6-diamine], 0.041 µM corresponded to half-maximal inhibition (IC50).
`Cc1ccccc1OCCn1c(C)nc2ccc(-c3cc(N)nc(N)c3)nc21` [Example 205, 4-{2-methyl-3-[2-(2-methylphenoxy)ethyl]-3H-imidazo[4,5-b]pyridin-5-yl}pyridine-2,6-diamine] displayed an IC50 of 0.03 µM.
As for `COc1ccc(OCCn2c(C)nc3ccc(-c4cc(N)nc(N)c4)nc32)cc1` [Example 209, 4-{3-[2-(4-methoxyphenoxy)ethyl]-2-methyl-3H-imidazo[4,5-b]pyridin-5-yl}pyridine-2,6-diamine], the IC50 was 0.025 µM.
As to `COc1ccc(C)cc1OCCn1c(C)nc2ccc(-c3cc(N)nc(N)c3)nc21` [Example 211, 4-{3-[2-(2-methoxy-5-methylphenoxy)ethyl]-2-methyl-3H-imidazo[4,5-b]pyridin-5-yl}pyridine-2,6-diamine], the IC50 was determined as 0.049 µM.
`Cc1nc2ccc(-c3cc(N)nc(N)c3)nc2n1CCOc1ccccc1OC(C)C` [Example 214, 4-(2-methyl-3-{2-[2-(propan-2-yloxy)phenoxy]ethyl}-3H-imidazo[4,5-b]pyridin-5-yl)pyridine-2,6-diamine] returned a concentration for half-maximal inhibition (IC50) of 0.072 µM.
For `CCOc1ccccc1OCCn1c(C)nc2ccc(-c3cc(N)nc(N)c3)nc21` [Example 215, 4-{3-[2-(2-ethoxyphenoxy)ethyl]-2-methyl-3H-imidazo[4,5-b]pyridin-5-yl}pyridine-2,6-diamine], 0.066 µM corresponded to half-maximal inhibition (IC50).
As to `Cc1nc2ccc(-c3cc(N)nc(N)c3)nc2n1CCOc1cccnc1` [Example 216, 4-{2-methyl-3-[2-(pyridin-3-yloxy)ethyl]-3H-imidazo[4,5-b]pyridin-5-yl}pyridine-2,6-diamine], the IC50 worked out at 0.029 µM.
Turning to `Cc1nc2ccc(-c3cc(N)nc(N)c3)nc2n1CCOc1ccnn1C` [Example 218, 4-(2-methyl-3-{2-[(1-methyl-1H-pyrazol-5-yl)oxy]ethyl}-3H-imidazo[4,5-b]pyridin-5-yl)pyridine-2,6-diamine], the midpoint of inhibition, the IC50, lay at 0.057 µM.
As to `Cc1nc2ccc(-c3cc(N)nc(N)c3)nc2n1CCOc1ncccn1` [Example 219, 4-{2-methyl-3-[2-(pyrimidin-2-yloxy)ethyl]-3H-imidazo[4,5-b]pyridin-5-yl}pyridine-2,6-diamine], half-maximal inhibition (IC50) was put at 0.04 µM.
The same measure for `C=CCCn1c(C)nc2ccc(-c3ccnc(N)c3)nc21` [Example 239, 4-[3-(but-3-en-1-yl)-2-methyl-3H-imidazo[4,5-b]pyridin-5-yl]pyridin-2-amine]: 0.068 µM; for `Cc1nc2ccc(-c3cc(F)nc(N)c3F)nc2n1C1CC1` [Example 241, 4-(3-cyclopropyl-2-methyl-3H-imidazo[4,5-b]pyridin-5-yl)-3,6-difluoropyridin-2-amine]: 0.098 µM; for `Cc1nc2ccc(-c3c(F)c(N)nc(N)c3F)nc2n1C1CC1` [Example 242, 4-(3-cyclopropyl-2-methyl-3H-imidazo[4,5-b]pyridin-5-yl)-3,5-difluoropyridine-2,6-diamine]: 0.154 µM.

A word on the IC50: it is the concentration that inhibits the measured activity by half. Low readings indicate greater potency in that assay, high ones weaker potency in that assay.
